Reference: patent US10526327B2, “Histone demethylase inhibitors” (CELGENE QUANTICEL RESEARCH, INC., priority 2013, dated 2020)

Tests used:
Jarid1B = target: T1, Jarid1B (Homo sapiens, UniProt Q9UGL1); experiment: Jarid1B in vitro enzyme inhibition assay (TR-FRET); assay type: biochemical
T1 construct: purchased BPS Bioscience or custom made by MolecularThroughput 50121
T1 sequence (Q9UGL1 2-751): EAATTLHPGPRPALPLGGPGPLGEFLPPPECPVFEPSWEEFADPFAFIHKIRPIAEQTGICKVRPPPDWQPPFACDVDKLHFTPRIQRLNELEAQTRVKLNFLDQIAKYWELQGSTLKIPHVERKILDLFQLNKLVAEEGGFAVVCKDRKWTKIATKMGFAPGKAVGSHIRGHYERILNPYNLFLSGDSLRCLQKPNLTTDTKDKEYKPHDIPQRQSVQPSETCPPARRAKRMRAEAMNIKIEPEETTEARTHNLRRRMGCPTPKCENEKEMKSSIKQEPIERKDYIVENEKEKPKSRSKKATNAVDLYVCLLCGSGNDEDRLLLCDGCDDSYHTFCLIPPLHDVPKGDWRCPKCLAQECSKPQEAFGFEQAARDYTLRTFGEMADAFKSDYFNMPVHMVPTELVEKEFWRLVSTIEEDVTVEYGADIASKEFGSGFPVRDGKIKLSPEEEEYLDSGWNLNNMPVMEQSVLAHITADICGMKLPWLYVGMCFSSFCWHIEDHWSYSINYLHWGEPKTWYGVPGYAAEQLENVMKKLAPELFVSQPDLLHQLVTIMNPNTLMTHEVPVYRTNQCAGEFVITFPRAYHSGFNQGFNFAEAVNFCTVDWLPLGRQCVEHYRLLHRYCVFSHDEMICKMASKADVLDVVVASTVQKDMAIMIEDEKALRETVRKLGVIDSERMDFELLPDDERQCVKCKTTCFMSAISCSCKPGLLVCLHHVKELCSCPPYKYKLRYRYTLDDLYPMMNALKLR
Procedure, shortened: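 Jarid1B (AA 2-751, baculovirus-expressed) at 0.8 nM with 300 nM biotin-H3K4me3 peptide and 2 μM α-ketoglutarate in HEPES pH 7.3 with ascorbate and Fe(II), 30 min at room temperature. Stopped with EDTA; H3K4me1-2 product detected by TR-FRET (665/615 ratio) and IC50 fitted from 11-point dilutions.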

JMJD2C = target: T2, JMJD2C (Homo sapiens, UniProt Q9H3R0); experiment: JMJD2C in vitro enzyme inhibition assay (TR-FRET); assay type: biochemical
T2 construct: purchased BPS Bioscience 50105
T2 sequence (Q9H3R0 2-372): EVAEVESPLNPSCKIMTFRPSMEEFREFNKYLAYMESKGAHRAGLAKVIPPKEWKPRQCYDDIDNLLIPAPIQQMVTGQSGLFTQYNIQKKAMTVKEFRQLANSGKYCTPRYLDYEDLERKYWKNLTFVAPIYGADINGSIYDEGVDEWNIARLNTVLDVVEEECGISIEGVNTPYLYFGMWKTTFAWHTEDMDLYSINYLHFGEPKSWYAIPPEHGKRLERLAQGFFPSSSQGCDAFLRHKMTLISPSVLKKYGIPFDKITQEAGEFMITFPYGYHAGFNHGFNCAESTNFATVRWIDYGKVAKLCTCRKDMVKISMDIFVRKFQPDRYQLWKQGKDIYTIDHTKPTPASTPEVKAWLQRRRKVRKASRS
Procedure, shortened: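 Baculovirus-expressed human JMJD2C (AA 2-372) at 0.3 nM demethylated 300 nM biotin-H3K9me3 peptide with 2 μM alpha-ketoglutarate in HEPES pH 7.3 containing ascorbate and Fe(II), 30 min at room temperature. EDTA-stopped product was read by TR-FRET with Eu-anti-H3K9me2 and streptavidin-APC; 665/615 ratios from 11-point dilutions gave IC50.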

IC50 (Jarid1B) | IC50 (JMJD2C) | SMILES
≤ 100 nM | ≤ 100 nM | Cn1cnc(-c2nccc3c(O)nc(OCC4CCOC4)nc23)c1 (centres unmarked) [Example 103, 8-(1-methyl-1H-imidazol-4-yl)-2-(oxolan-3-ylmethoxy)pyrido[3,4-d]pyrimidin-4-ol]
≤ 100 nM | ≤ 100 nM | Cn1cnc(-c2nccc3c(O)nc(OCc4cccc(F)c4)nc23)c1 [Example 104, 2-[(3-fluorophenyl)methoxy]-8-(1-methyl-1H-imidazol-4-yl)pyrido[3,4-d]pyrimidin-4-ol]
≤ 100 nM | ≤ 100 nM | Cn1cnc(-c2nccc3c(O)nc(OCc4ccccc4Cl)nc23)c1 [Example 105, 2-[(2-chlorophenyl)methoxy]-8-(1-methyl-1H-imidazol-4-yl)pyrido[3,4-d]pyrimidin-4-ol]
≤ 100 nM | 100 to 1000 nM | Cn1cnc(-c2nccc3c(O)nc(OCc4cccc(Cl)c4Cl)nc23)c1 [Example 106, 2-[(2,3-dichlorophenyl)methoxy]-8-(1-methyl-1H-imidazol-4-yl)pyrido[3,4-d]pyrimidin-4-ol]
